# Assay results taken from ChEMBL document CHEMBL1152223, “Analogues of 2-phenyl-ethenesulfonic acid phenyl ester have dual functions of inhibiting expression of inducible nitric oxide synthase and activating peroxisome proliferator-activated receptor gamma” (Bioorg Med Chem Lett, 2008).
# Active and inactive are the calls of the source. The rule behind the calls is not given here.
# Experiments:
# RAW264.7 [1] = experiment: Suppression of LPS/IFN-gamma-stimulated NO production in mouse RAW264.7 cells at 10 uM; assay type: functional
# RAW264.7 [2] = experiment: Inhibition of iNOS expression in LPS/IFN-gamma-stimulated mouse RAW264.7 cells at 5 uM; assay type: functional, cell-based
# [3] = Cytotoxicity against mouse RAW264.7 cells; assay type: cell-based
# RAW264.7 [4] = experiment: Inhibition of iNOS expression in LPS/IFN-gamma-stimulated mouse RAW264.7 cells at 10 uM; assay type: functional, cell-based
# [5] = target: T1, Peroxisome proliferator-activated receptor gamma (Homo sapiens, UniProt P37231); experiment: Displacement of [3H]BRL49653 from PPARgamma ligand binding domain by scintillation proximity assay
# T1 sequence (P37231 whole entry): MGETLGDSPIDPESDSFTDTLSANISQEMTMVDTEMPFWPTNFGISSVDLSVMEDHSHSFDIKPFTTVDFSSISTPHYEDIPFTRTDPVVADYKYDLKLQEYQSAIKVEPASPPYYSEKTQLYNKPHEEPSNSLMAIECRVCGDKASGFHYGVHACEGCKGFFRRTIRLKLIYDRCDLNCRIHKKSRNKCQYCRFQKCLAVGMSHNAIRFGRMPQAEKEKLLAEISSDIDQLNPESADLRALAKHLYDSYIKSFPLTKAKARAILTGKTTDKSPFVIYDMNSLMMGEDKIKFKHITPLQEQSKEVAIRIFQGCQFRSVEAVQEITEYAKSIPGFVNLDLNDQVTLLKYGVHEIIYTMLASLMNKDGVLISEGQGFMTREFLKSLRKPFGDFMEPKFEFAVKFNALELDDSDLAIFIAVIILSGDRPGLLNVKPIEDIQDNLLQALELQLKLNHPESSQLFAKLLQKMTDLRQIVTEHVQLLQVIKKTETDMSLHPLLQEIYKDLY
# RAW264.7 [6] = experiment: Suppression of LPS/IFN-gamma-stimulated NO production in mouse RAW264.7 cells; assay type: functional, cell-based
IC50 [5] [µM],IC50 (RAW264.7 [6]) [µM],SMILES,Activity (RAW264.7 [1]) [%],GI50 [3] [µM],further results
–,–,O=S(=O)(CCc1ccccc1)Oc1ccccc1,2,–,–
–,–,O=S(=O)(CCc1ccccc1)Oc1ccc(Cl)cc1,4,–,–
0.407,2.77,Cc1ccc(OS(=O)(=O)/C=C/c2ccccc2)cc1,–,> 80,Activity (RAW264.7 [2]): Active; Activity (RAW264.7 [4]): Active
0.747,9.88,CCOC(=O)c1ccc(OS(=O)(=O)/C=C/c2ccccc2)cc1,–,> 80,–
1.09,6.18,O=S(=O)(/C=C/c1ccccc1)Oc1ccc2ccccc2c1,–,> 80,–
–,–,Cc1cccc(OS(=O)(=O)CCc2ccccc2)c1,0,–,–
–,–,O=C(O)c1cccc(NS(=O)(=O)/C=C/c2ccccc2)c1,1,–,–
–,–,O=S(=O)(Cc1ccccc1)Oc1ccc2ccccc2c1,7,–,–
2.1,9.72,O=Cc1ccc(OS(=O)(=O)/C=C/c2ccccc2)cc1,–,> 80,Activity (RAW264.7 [2]): Active; Activity (RAW264.7 [4]): Active
–,2.2,CCCCC/C=C/C=C1/C(=O)C=C[C@@H]1C/C=C\CCCC(=O)O,–,–,Activity (RAW264.7 [2]): Active; Activity (RAW264.7 [4]): Active
1.29,7.45,COc1ccc(OS(=O)(=O)/C=C/c2ccccc2)cc1,–,–,–
–,–,CCOc1ccc(NS(=O)(=O)/C=C/c2ccccc2)cc1,0,–,–
–,–,CCS(=O)(=O)Oc1cccc(Oc2ccccc2)c1,11,–,–
13.5,21.6,O=C(O)c1cccc(OS(=O)(=O)/C=C/c2ccccc2)c1,–,> 80,–
–,–,O=S(=O)(CCc1ccccc1)Oc1c(Cl)cc(Cl)cc1Cl,10,–,–
–,–,O=S(=O)(CCc1ccccc1)Oc1ccc2ccccc2c1,6,–,–

IC50 [5] [µM],IC50 (RAW264.7 [6]) [µM],SMILES,Activity (RAW264.7 [1]) [%],GI50 [3] [µM],further results
0.703,9.3,O=S(=O)(/C=C/c1ccccc1)Oc1ccc(OCc2ccccc2)cc1,–,> 80,Activity (RAW264.7 [2]): Active; Activity (RAW264.7 [4]): Active
–,–,Cc1ccc(NS(=O)(=O)/C=C/c2ccccc2)cc1,8,–,–
1.33,6.66,O=S(=O)(/C=C/c1ccccc1)Oc1ccccc1,–,> 80,Activity (RAW264.7 [2]): Active; Activity (RAW264.7 [4]): Active
–,–,NS(=O)(=O)c1ccc(NS(=O)(=O)/C=C/c2ccccc2)cc1,0,–,–
1.44,1.83,O=S(=O)(/C=C/c1ccccc1)Oc1c(Cl)cc(Cl)cc1Cl,–,> 80,Activity (RAW264.7 [2]): Active; Activity (RAW264.7 [4]): Active
–,–,O=S(=O)(Cc1ccccc1)Oc1ccccc1 [PHENYL PHENYLMETHANESULFONATE],3,–,–
–,–,O=C(O)c1ccc(NS(=O)(=O)/C=C/c2ccccc2)cc1,2,–,–
–,–,O=S(=O)(/C=C/c1ccccc1)Nc1ccccc1,4,–,–
10.7,19.9,CC(=O)Nc1ccc(OS(=O)(=O)/C=C/c2ccccc2)cc1,–,> 80,–
–,–,O=S(=O)(/C=C/c1ccccc1)Nc1ccc(Br)cc1,5,–,–
–,–,COc1ccc(NS(=O)(=O)/C=C/c2ccccc2)cc1,5,–,–
–,17.5,CN(CCOc1ccc(CC2SC(=O)NC2=O)cc1)c1ccccn1 (stereo unspecified) [ROSIGLITAZONE],–,–,–
–,–,COc1cccc(NS(=O)(=O)/C=C/c2ccccc2)c1,12,–,–
–,–,O=C(O)c1cccc(OS(=O)(=O)CCc2ccccc2)c1,6,–,–
1.19,3.45,Cc1cccc(OS(=O)(=O)/C=C/c2ccccc2)c1,–,62.5,–
–,–,O=S(=O)(Cc1ccccc1)Oc1ccccc1Cl,0,–,–

SMILES,IC50 [5] [µM],IC50 (RAW264.7 [6]) [µM],Activity (RAW264.7 [1]) [%],GI50 [3] [µM],further results
O=S(=O)(/C=C/c1ccccc1)Oc1ccc(Cl)cc1,0.302,2.35,–,75.3,–
O=S(=O)(/C=C/c1ccccc1)Oc1cccc(Oc2ccccc2)c1,0.382,16.2,–,> 80,–
